Data on ten compounds can be found in ChEMBL document CHEMBL1201862, “PubChem BioAssay data set” (2004).

Some test systems named below: MCF7; Hs-578T; K562; LOX IMVI; KM12; SK-MEL-5; CCRF-CEM; MOLT-4; 786-0; HCT-15; OVCAR-5; SK-MEL-2; SW-620; HCT-116; IGROV-1; OVCAR-8; MDA-MB-435; HOP-92; MDA-MB-231; UO-31.
What all share (test): NCI anticancer screen, dose series, 48 h

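96-well plates; 48 h exposure; 5 concentrations. Endpoints by linear interpolation between flanking doses. Not reached: highest tested concentration assigned. GI50 = concentration required for 50% inhibition of growth.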 Active and inactive are the calls of the source. No stated cut-off is given here; in the data, active = GI50 up to about 1.1 µM and inactive = higher. Bounds are passed on as bounds.

`CS(=O)(=O)N1CC(CI)c2ccc(O)cc21` (configuration not stated): the GI50 was 0.925 µM (active) with MCF7; 3.41 µM (inactive) in the experiment on Hs-578T; 2.66 µM (inactive) with K562; 3.21 µM (inactive) in the experiment with LOX IMVI; 3.59 µM (inactive) with KM12; 1.43 µM (inactive) in the experiment on SK-MEL-5. Also, the GI50 in the experiment with CCRF-CEM is 0.807 µM (active); with MOLT-4 it was 0.809 µM (active); with 786-0 it was 3.24 µM (inactive); in the experiment on HCT-15 it was 3.13 µM; in the experiment on OVCAR-5, 2.29 µM (inactive); with SK-MEL-2, 2.1 µM (inactive). In addition, the GI50 with SW-620 is 2.18 µM (inactive); in the experiment with HCT-116 it was 2.98 µM (inactive); with IGROV-1 it was 3.98 µM (inactive); in the experiment on OVCAR-8, 2.89 µM (inactive); in the experiment on MDA-MB-435 it was 1.89 µM (inactive); with HOP-92, 2.18 µM (inactive). Besides, the GI50 in the experiment on MDA-MB-231 is 2.84 µM (inactive); with UO-31, 3.35 µM (inactive).
Take `Cc1cc(C)nc(NS(=O)(=O)c2ccc(Nc3c4ccccc4nc4c(C(=O)NCCCN(CCO)CCO)cccc34)cc2)n1`: the GI50 in the experiment on MCF7 is 5.89 µM (inactive); in the experiment with Hs-578T, 6.67 µM (inactive); in the experiment with K562, 10.6 µM (inactive); with LOX IMVI it was 10.3 µM (inactive); in the experiment on KM12, 12.6 µM (inactive); in the experiment with SK-MEL-5, 14.8 µM (inactive). For the same compound, the GI50 with CCRF-CEM was 7.66 µM (inactive); in the experiment with MOLT-4 it was 3.33 µM (inactive); with 786-0 it was > 10 µM (inactive); in the experiment with HCT-15 it was 49.2 µM; in the experiment with OVCAR-5, 26.4 µM (inactive); in the experiment on SK-MEL-2, 14.2 µM (inactive). Moreover, the GI50 in the experiment with SW-620 was 8.36 µM (inactive); with IGROV-1, 15.5 µM (inactive); in the experiment with OVCAR-8, 17.3 µM (inactive); with MDA-MB-435, 16 µM (inactive); with HOP-92 it was 5.18 µM (inactive); in the experiment with MDA-MB-231 it was 27.4 µM (inactive). In addition, in the experiment on UO-31, the GI50 was 42 µM (inactive).
As for `C(/Cc1ccc2c(c1)OCO2)=N\N=C1NCCCN1`, the GI50 in the experiment with MCF7 was 26.9 µM (inactive); with Hs-578T, > 100 µM (inactive); in the experiment on K562, 35.1 µM (inactive); in the experiment with LOX IMVI it was 29.4 µM (inactive); with KM12, > 100 µM (inactive); with SK-MEL-5, 25 µM (inactive). Also, the GI50 was 48.5 µM (inactive) with CCRF-CEM; 24.7 µM (inactive) in the experiment with MOLT-4; 78.2 µM (inactive) with 786-0; over 100 µM in the experiment on HCT-15; 59 µM (inactive) in the experiment with OVCAR-5; > 100 µM (inactive) in the experiment on SK-MEL-2. Besides, the GI50 in the experiment on SW-620 was > 100 µM (inactive); in the experiment with HCT-116 it was 46.2 µM (inactive); with IGROV-1, 68.2 µM (inactive); in the experiment on OVCAR-8 it was > 100 µM (inactive); in the experiment on MDA-MB-435, > 100 µM (inactive); in the experiment with HOP-92 it was 70.1 µM (inactive). The GI50 with MDA-MB-231 was > 100 µM (inactive); in the experiment with UO-31, 38.2 µM (inactive).
As for `CCOC(=O)/C(C#N)=C(/NS(=O)(=O)c1cc(C)c(Cl)cc1[S-])[n+]1ccc(N(C)C)cc1`, the GI50 in the experiment with MCF7, with Hs-578T, in the experiment on K562, in the experiment on KM12, with SK-MEL-5 and in the experiment on CCRF-CEM was > 100 µM (inactive) each time. Moreover, the GI50 is > 100 µM (inactive) in the experiment on MOLT-4; > 100 µM (inactive) in the experiment on 786-0; over 100 µM with HCT-15; > 100 µM (inactive) with OVCAR-5; > 100 µM (inactive) in the experiment with SK-MEL-2; > 100 µM (inactive) in the experiment on HCT-116. Also, the GI50 in the experiment on IGROV-1 was > 100 µM (inactive); in the experiment with OVCAR-8, > 100 µM (inactive); with MDA-MB-435 it was > 100 µM (inactive); with HOP-92 it was 27.4 µM (inactive); in the experiment with MDA-MB-231 it was > 100 µM (inactive); in the experiment on UO-31, > 100 µM (inactive).
Turning to `O=c1c(NCc2ccccc2)c(C2(c3ccccc3F)SCCCS2)c1=O`, the GI50 with MCF7 is > 100 µM (inactive); with Hs-578T, > 100 µM (inactive); with LOX IMVI, > 100 µM (inactive); in the experiment on KM12 it was 46.1 µM (inactive); in the experiment with SK-MEL-5, > 100 µM (inactive); with CCRF-CEM, > 100 µM (inactive). Moreover, the GI50 was 54 µM (inactive) in the experiment with MOLT-4; > 100 µM (inactive) with 786-0; over 100 µM with HCT-15; > 100 µM (inactive) with OVCAR-5; > 100 µM (inactive) in the experiment with SK-MEL-2; > 100 µM (inactive) in the experiment on SW-620. Further, the GI50 with HCT-116 is > 100 µM (inactive); in the experiment on IGROV-1, > 100 µM (inactive); in the experiment on OVCAR-8 it was > 100 µM (inactive); with MDA-MB-435, 19.5 µM (inactive); in the experiment on HOP-92 it was > 100 µM (inactive); in the experiment with MDA-MB-231, > 100 µM (inactive). Also, the GI50 in the experiment on UO-31 was > 100 µM (inactive).
In the case of `Cc1oc2ccccc2c(=O)c1Cn1nnc2ccccc21`, the GI50 with MCF7 is 21.8 µM (inactive); in the experiment on Hs-578T it was 83.2 µM (inactive); in the experiment on K562, 56.6 µM (inactive); in the experiment on LOX IMVI, 73.3 µM (inactive); with KM12 it was > 100 µM (inactive); in the experiment with SK-MEL-5 it was 20.5 µM (inactive). Moreover, the GI50 is 95.1 µM (inactive) in the experiment with CCRF-CEM; 37.2 µM (inactive) in the experiment on MOLT-4; > 100 µM (inactive) in the experiment with 786-0; 96.2 µM with HCT-15; > 100 µM (inactive) in the experiment on OVCAR-5; > 100 µM (inactive) in the experiment on SK-MEL-2. Moreover, the GI50 is > 100 µM (inactive) in the experiment on SW-620; 59.7 µM (inactive) in the experiment with HCT-116; 43.3 µM (inactive) with OVCAR-8; 41.3 µM (inactive) in the experiment on MDA-MB-435; 18.6 µM (inactive) in the experiment on HOP-92; 91.4 µM (inactive) in the experiment on MDA-MB-231. Further, in the experiment with UO-31, the GI50 was 47.3 µM (inactive).
As for `O=c1[nH]c2ccc(CC(=S)N3CCN(c4ccccc4)CC3)cc2o1`, the GI50 in the experiment with MCF7 is > 100 µM (inactive); with Hs-578T, > 54.2 µM (inactive); in the experiment on K562 it was 53.2 µM (inactive); with LOX IMVI, > 100 µM (inactive); with KM12, 63.4 µM (inactive); in the experiment with SK-MEL-5, 48.9 µM (inactive). The GI50 with CCRF-CEM is 71.3 µM (inactive); in the experiment with MOLT-4, > 80.7 µM (inactive); in the experiment with 786-0, > 90.2 µM (inactive); in the experiment with HCT-15, 66.2 µM; in the experiment with OVCAR-5, > 100 µM (inactive); in the experiment with SK-MEL-2 it was > 100 µM (inactive). In addition, the GI50 is > 100 µM (inactive) with SW-620; > 80.5 µM (inactive) with HCT-116; > 90.8 µM (inactive) with IGROV-1; > 79.1 µM (inactive) in the experiment with OVCAR-8; 54.5 µM (inactive) in the experiment on MDA-MB-435; 84.9 µM (inactive) in the experiment on HOP-92. The GI50 in the experiment with MDA-MB-231 and in the experiment on UO-31 was > 100 µM (inactive) each time.
With `COc1ccc2c(c1)-c1c(c3cc(OC)ccc3n1CCN1CCOCC1)CC2`, the GI50 with MCF7 is 29 µM (inactive); in the experiment with Hs-578T it was 16.6 µM (inactive); in the experiment on K562 it was 13.2 µM (inactive); with KM12, 22.6 µM (inactive); with SK-MEL-5, 25.4 µM (inactive); with CCRF-CEM it was 11.5 µM (inactive). Moreover, the GI50 is 11.9 µM (inactive) with MOLT-4; 20.2 µM (inactive) in the experiment on 786-0; 14.5 µM with HCT-15; 25.4 µM (inactive) with OVCAR-5; 55.2 µM (inactive) with SK-MEL-2; 33.7 µM (inactive) with SW-620. In addition, the GI50 in the experiment with HCT-116 was 27.2 µM (inactive); with IGROV-1 it was 18.1 µM (inactive); in the experiment on OVCAR-8 it was 28.6 µM (inactive); in the experiment with MDA-MB-435 it was 49.1 µM (inactive); in the experiment on HOP-92, 24.4 µM (inactive); in the experiment with MDA-MB-231, 34.4 µM (inactive). The GI50 in the experiment with UO-31 is 24.5 µM (inactive).
In the case of `C#CC(O)/C=C/C(O)CCCC(O)CC#CC(O)C#CCCCCC(O)/C=C/CCCCCC(=O)CCCCCCCCCCCCCC(O)C(O)C#CC(=O)O` (configuration not stated), the GI50 is > 25 µM (inactive) with MCF7; > 25 µM (inactive) in the experiment on Hs-578T; > 25 µM (inactive) with K562; 4.6 µM (inactive) in the experiment with LOX IMVI; > 25 µM (inactive) in the experiment with KM12; > 25 µM (inactive) in the experiment with SK-MEL-5. Also, the GI50 in the experiment with CCRF-CEM is 6.81 µM (inactive); in the experiment on MOLT-4 it was 12.8 µM (inactive); in the experiment on 786-0 it was > 25 µM (inactive); with HCT-15 it was over 25 µM; in the experiment on OVCAR-5, > 25 µM (inactive); in the experiment on SK-MEL-2, > 25 µM (inactive). The GI50 in the experiment with HCT-116 was > 25 µM (inactive); in the experiment with IGROV-1, 4.13 µM (inactive); in the experiment with OVCAR-8, > 25 µM (inactive); in the experiment on MDA-MB-435, > 25 µM (inactive); in the experiment on HOP-92, > 25 µM (inactive); with MDA-MB-231, > 25 µM (inactive). The GI50 with UO-31 is 11.5 µM (inactive).
Regarding `Cc1ccc(Nc2nnc3n2S(=O)(=O)c2cc(C)c(Cl)cc2S3)cc1`, the GI50 in the experiment with MCF7 was 5.26 µM (inactive); in the experiment on Hs-578T, 2.89 µM (inactive); in the experiment with K562 it was 3.4 µM (inactive); with LOX IMVI, 6.14 µM (inactive); in the experiment on KM12, 6.56 µM (inactive); in the experiment on SK-MEL-5, 3.6 µM (inactive). Also, the GI50 in the experiment with MOLT-4 was 4.25 µM (inactive); with 786-0 it was 10.3 µM (inactive); in the experiment on HCT-15, 5.05 µM; with OVCAR-5 it was 14.1 µM (inactive); in the experiment with SK-MEL-2 it was 3.91 µM (inactive); with SW-620 it was 14.5 µM (inactive). Also, the GI50 with HCT-116 was 6.37 µM (inactive); in the experiment with IGROV-1, 4.4 µM (inactive); in the experiment on OVCAR-8, 12.6 µM (inactive); with MDA-MB-435 it was 3.64 µM (inactive); in the experiment on HOP-92, 4.89 µM (inactive); in the experiment with MDA-MB-231 it was 13.4 µM (inactive). Besides, the GI50 in the experiment with UO-31 was 17.3 µM (inactive).
